Where two headings read alike, the source gives them in different places.
Assays:
[1] = Optimum concentration (substance data tables; stabilizing effect)
Source text: With respect to the stabilizing effect of optically active DIP it is most important that the substance is present in the form of potassium salt.

model proteins = test: Protection of model proteins; type: biochemical; settings: protecting model proteins
Description: Application related examinations were conducted with di-glycerol phosphate (DGP) aimed at protecting model proteins. As a penetration intensifier di-glycerol phosphate moreover ensures that these macro-molecules are also transported through several skin layers until they have reached their target destination.

Solubility in water = type: physicochemical
[2] = Chemical, physical, pH and light stability; type: physicochemical
Water binding capability = type: physicochemical
Source text: Moreover, the compound is thus of interest for the regulation and balancing of the skin's moisture characteristics. This is at least of additional advantage when the compound is used as a cosmetic agent.

[3] = Biocompatibility / allergenic potential
proteins = test: Protection against thermally induced denaturation of proteins; type: biochemical
Source text: Little is known at the present time about the effect of DIP in general. This mainly due to the fact that only very little of this compound is available.

Row | solubility in water (Solubility in water) | chemical and physical stability [2] | capability of binding water (Water binding capability) | biocompatibility [3] | chemical and physical stability ([2]; listed as di-myo-inositol phosphate) | SMILES | Optimum concentration [1] | protective potential compared with glycerine (model proteins) | protective effect in respect of the thermally induced denaturation of proteins (proteins; first experiments) | protective effect in comparison with other compatible solutes (proteins; thermally induced denaturation of proteins)
1 | Excellent | High | highly capable of binding water | High | – | O=P(O)(OCC(O)CO)OCC(O)CO (stereo not shown) [DGP, di-glycerol phosphate] | 100 to 200 mM | by far better protective potential | – | –
2 | Excellent | High | highly capable of binding water | – | great stability | O=P(O)(O[C@@H]1[C@H](O)[C@H](O)[C@@H](O)[C@H](O)[C@H]1O)O[C@@H]1[C@@H](O)[C@H](O)[C@@H](O)[C@H](O)[C@@H]1O [DIP, di-myo-inositol phosphate] | 250 to 400 mM | – | excellent | far and decidedly better
